Experimental data published in patent US11866414B2, “Substituted heterocyclic compounds” (BRISTOL-MYERS SQUIBB COMPANY, priority 2021, dated 2024).

What was measured:
[1] = system: IFNα-induced STAT phosphorylation (pSTAT5); assay: IFNα-induced STAT phosphorylation in human whole blood; format: cell-based; conditions: 1 h compound, 1000 U/mL IFNα A/D 15 min, CD3 positive population, read-out: Human Whole blood IFNa pSTAT5 IC50
Protocol: IFNα-Induced STAT Phosphorylation in Human Whole Blood
After an hour long incubation with compound, human whole blood (drawn with ACD-A as anticoagulant) was stimulated with 1000 U/mL recombinant human IFNα A/D (R&D Systems 11200-2) for 15 min. The stimulation was stopped by adding Fix/Lyse buffer (BD 558049). Cells were stained with a CD3 FITC antibody (BD 555916), washed, and permeabilized on ice using Perm III buffer (BD 558050). Cells were then stained with an Alexa-Fluor 647 pSTAT5 (pY694) antibody (BD 612599) for 60 min prior to analysis on the iQue Plus. The amount of pSTAT5 expression was quantitated by median fluorescence intensity after gating on the CD3 positive population.

in vitro = conditions: human, Caco-2, pH 7.4

IC50 [1] [µM]	SMILES	also measured
0.47	CCn1ncc(-c2cc(Cl)cc(Nc3cc(NC(=O)C4CC4)nnc3C(=O)NC)c2OC)n1 [Example 15, 4-{[5-chloro-3-(2-ethyl-2H-1,2,3-triazol-4-yl)-2-methoxyphenyl]amino}-6-cyclopropaneamido-N—(^2H3)methylpyridazine-3-carboxamide]	–
0.04	CNC(=O)c1nnc(NC(=O)C2CC2)cc1Nc1cc(C)cc(-c2cnn(C)n2)c1OC [Example 17, 6-cyclopropaneamido-4-{[2-methoxy-5-methyl-3-(2-methyl-2H-1,2,3-triazol-4-yl)phenyl]amino}-N—(^2H3)methylpyridazine-3-carboxamide]	–
1.4	CNC(=O)c1nnc(NC(=O)C2CC2)cc1Nc1ccc(F)c(-c2cnn(C3CC3)n2)c1OC [Example 16, 6-cyclopropaneamido-4-{[3-(2-cyclopropyl-2H-1,2,3-triazol-4-yl)-4-fluoro-2-methoxyphenyl]amino}-N—(^2H3)methylpyridazine-3-carboxamide]	–
0.48	CNC(=O)c1nnc(NC(=O)C2CC2)cc1Nc1ccc(C2CC2)c(-c2cnn(C)n2)c1OC [Example 55, 6-cyclopropaneamido-4-{[4-cyclopropyl-2-methoxy-3-(2-methyl-2H-1,2,3-triazol-4-yl)phenyl]amino}-N—(^2H3)methylpyridazine-3-carboxamide]	–
0.23	CNC(=O)c1nnc(NC(=O)C2CC2)cc1Nc1ccc(F)c(-c2cnn(C)n2)c1OC [Example 18, 6-cyclopropaneamido-4-{[4-fluoro-2-methoxy-3-(2-methyl-2H-1,2,3-triazol-4-yl)phenyl]amino}-N—(^2H3)methylpyridazine-3-carboxamide]	–
0.29	CNC(=O)c1nnc(NC(=O)C2CC2)cc1Nc1cccc(-c2cnn(C)n2)c1OC(F)F [Example 56, 6-cyclopropaneamido-4-{[2-(difluoromethoxy)-3-(2-methyl-2H-1,2,3-triazol-4-yl)phenyl]amino}-N—(^2H3)methylpyridazine-3-carboxamide]	–
0.23	CNC(=O)c1nnc(NC(=O)C2CC2)cc1Nc1cc(F)cc(-c2cnn(C3CC3)n2)c1OC [Example 12, 6-cyclopropaneamido-4-{[3-(2-cyclopropyl-2H-1,2,3-triazol-4-yl)-5-fluoro-2-methoxyphenyl]amino}-N—(^2H3)methylpyridazine-3-carboxamide]	–
0.19	CNC(=O)c1nnc(NC(=O)C2CC2)cc1Nc1nccc(-c2cnn(C3CC3)n2)c1OC [Example 14, 6-cyclopropaneamido-4-{[4-(2-cyclopropyl-2H-1,2,3-triazol-4-yl)-3-methoxypyridin-2-yl]amino}-N—(^2H3)methylpyridazine-3-carboxamide]	–
–	CC(C)(C)NCC(O)COc1cccc2c1CC(O)C(O)C2 (centres unmarked) [Nadolol, reference compound]	Papp A→B at 2 h, 3 μM (in vitro): 2 ± 0.9 ×10⁻⁶ cm/s; Papp B→A at 2 h, 3 μM (in vitro): 2.5 ± 1.1 ×10⁻⁶ cm/s; efflux ratio at 2 h, 3 μM (in vitro): 1.3

SMILES	IC50 [1] [µM]	also measured
CNC(=O)c1nnc(NC(=O)C2CC2)cc1Nc1cccc(-c2cnn(C3COC3)n2)c1OC [Example 53, 6-cyclopropaneamido-4-({2-methoxy-3-[2-(oxetan-3-yl)-2H-1,2,3-triazol-4-yl]phenyl}amino)-N—(^2H3)methylpyridazine-3-carboxamide]	0.17	–
CNC(=O)c1nnc(NC(=O)N(C)C(C)C)cc1Nc1nccc(-c2cnn(C)n2)c1OC [Example 59, 4-{[3-methoxy-4-(2-methyl-2H-1,2,3-triazol-4-yl)pyridin-2-yl]amino}-N—(^2H3)methyl-6-{[methyl(propan-2-yl)carbamoyl]amino}pyridazine-3-carboxamide]	0.25	–
CCN(C)C(=O)Nc1cc(Nc2nccc(-c3cnn(C)n3)c2OC)c(C(=O)NC)nn1 [Example 58, 6-{[ethyl(methyl)carbamoyl]amino}-4-{[3-methoxy-4-(2-methyl-2H-1,2,3-triazol-4-yl)pyridin-2-yl]amino}-N—(^2H3)methylpyridazine-3-carboxamide]	0.23	–
